Measurements from ChEMBL document CHEMBL3817824, “Synthesis and biological evaluation of new [1,2,4]triazolo[4,3-a]pyridine derivatives as potential c-Met inhibitors” (Bioorg Med Chem, 2016).

Assays:
[1] = biological target: Serine/threonine-protein kinase N1 (Homo sapiens, UniProt Q16512); test: Inhibition of PKN1 (unknown origin) incubated for 1 hr by spectrophotometric analysis
[2] = biological target: Tyrosine-protein kinase SYK (Homo sapiens, UniProt P43405); test: Inhibition of SYK (unknown origin) incubated for 1 hr by spectrophotometric analysis
[3] = biological target: Receptor-type tyrosine-protein kinase FLT3 (Homo sapiens, UniProt P36888); test: Inhibition of FLT3 (unknown origin) incubated for 1 hr by spectrophotometric analysis
[4] = biological target: Fibroblast growth factor receptor 3 (Homo sapiens, UniProt P22607); test: Inhibition of FGFR3 (unknown origin) incubated for 1 hr by spectrophotometric analysis
[5] = biological target: Tyrosine-protein kinase ABL1 (Homo sapiens, UniProt P00519); test: Inhibition of ABL (unknown origin) incubated for 1 hr by spectrophotometric analysis
[6] = biological target: ALK tyrosine kinase receptor (Homo sapiens, UniProt Q9UM73); test: Inhibition of ALK (unknown origin) incubated for 1 hr by spectrophotometric analysis
[7] = biological target: Muscle, skeletal receptor tyrosine-protein kinase (Homo sapiens, UniProt O15146); test: Inhibition of MUSK (unknown origin) incubated for 1 hr by spectrophotometric analysis
[8] = biological target: Platelet-derived growth factor receptor alpha (Homo sapiens, UniProt P16234); test: Inhibition of PDGFRalpha (unknown origin) incubated for 1 hr by spectrophotometric analysis
[9] = Cytotoxicity against human MHCC97H cells assessed as reduction in cell survival incubated for 3 days by cell titre-glo assay; type: functional, cell-based; conditions: 72 h
[10] = biological target: Tyrosine-protein kinase ABL2 (Homo sapiens, UniProt P42684); test: Inhibition of ARG (unknown origin) incubated for 1 hr by spectrophotometric analysis
[11] = biological target: Fibroblast growth factor receptor 1 (Homo sapiens, UniProt P11362); test: Inhibition of FGFR1 (unknown origin) incubated for 1 hr by spectrophotometric analysis
[12] = biological target: Proto-oncogene tyrosine-protein kinase Src (Homo sapiens, UniProt P12931); test: Inhibition of SRC (unknown origin) incubated for 1 hr by spectrophotometric analysis
[13] = biological target: Epidermal growth factor receptor (Homo sapiens, UniProt P00533, T790M); test: Inhibition of EGFR T790M mutant (unknown origin) incubated for 1 hr by spectrophotometric analysis; type: protein assay
[14] = biological target: Vascular endothelial growth factor receptor 2 (Homo sapiens, UniProt P35968); test: Inhibition of KDR (unknown origin) incubated for 1 hr by spectrophotometric analysis
[15] = biological target: Tyrosine-protein kinase Lyn (Homo sapiens, UniProt P07948); test: Inhibition of LYNA (unknown origin) incubated for 1 hr by spectrophotometric analysis
Insulin receptor = Insulin receptor (Homo sapiens, UniProt P06213); test: Inhibition of INSR (unknown origin) incubated for 1 hr by spectrophotometric analysis
[16] = Cytotoxicity against human MHCC97L cells assessed as reduction in cell survival incubated for 3 days by cell titre-glo assay; type: functional, cell-based; conditions: 72 h
[17] = biological target: Epidermal growth factor receptor (Homo sapiens, UniProt P00533); test: Inhibition of EGFR (unknown origin) incubated for 1 hr by spectrophotometric analysis
[18] = Cytotoxicity against human HuH7 cells assessed as reduction in cell survival incubated for 3 days by cell titre-glo assay; type: functional, cell-based; conditions: Huh-7, 72 h
[19] = biological target: Receptor tyrosine-protein kinase erbB-2 (Homo sapiens, UniProt P04626); test: Inhibition of HER2 (unknown origin) incubated for 1 hr by spectrophotometric analysis
[20] = biological target: Tyrosine-protein kinase receptor UFO (Homo sapiens, UniProt P30530); test: Inhibition of AXL (unknown origin) incubated for 1 hr by spectrophotometric analysis
NCI-H1993 = test: Cytotoxicity against human NCI-H1993 cells assessed as reduction in cell survival incubated for 3 days by cell titre-glo assay; type: functional, cell-based; conditions: NCI-H1993, 72 h
[21] = biological target: cAMP-dependent protein kinase catalytic subunit alpha (Homo sapiens, UniProt P17612); test: Inhibition of PKACalpha (unknown origin) incubated for 1 hr by spectrophotometric analysis
[22] = biological target: Tyrosine-protein kinase Lck (Homo sapiens, UniProt P06239); test: Inhibition of LCK (unknown origin) incubated for 1 hr by spectrophotometric analysis
[23] = biological target: Cyclin-dependent kinase 2 (Homo sapiens, UniProt P24941); test: Inhibition of CDK2 (unknown origin) incubated for 1 hr by spectrophotometric analysis
[24] = biological target: Leukocyte tyrosine kinase receptor (Homo sapiens, UniProt P29376); test: Inhibition of LTK (unknown origin) incubated for 1 hr by spectrophotometric analysis
[25] = Cytotoxicity against human HCCLM3 cells assessed as reduction in cell survival incubated for 3 days by cell titre-glo assay; type: functional, cell-based; conditions: HCCLM3, 72 h
[26] = biological target: Epidermal growth factor receptor (Homo sapiens, UniProt P00533, L858R/T790M); test: Inhibition of EGFR T790M/L858R mutant (unknown origin) incubated for 1 hr by spectrophotometric analysis; type: protein assay
NCI-H1975 = test: Cytotoxicity against human NCI-H1975 cells assessed as reduction in cell survival incubated for 3 days by cell titre-glo assay; type: functional, cell-based; conditions: NCI-H1975, 72 h
NCI-N87 = test: Cytotoxicity against human NCI-N87 cells assessed as reduction in cell survival incubated for 3 days by cell titre-glo assay; type: functional, cell-based; conditions: NCI-N87, 72 h
[27] = Cytotoxicity against human SNU5 cells assessed as reduction in cell survival incubated for 3 days by cell titre-glo assay; conditions: SNU-5, 72 h
[28] = biological target: Platelet-derived growth factor receptor beta (Homo sapiens, UniProt P09619); test: Inhibition of PDGFRbeta (unknown origin) incubated for 1 hr by spectrophotometric analysis
[29] = biological target: Vascular endothelial growth factor receptor 1 (Homo sapiens, UniProt P17948); test: Inhibition of FLT1 (unknown origin) incubated for 1 hr by spectrophotometric analysis
[30] = biological target: Protein kinase C zeta type (Homo sapiens, UniProt Q05513); test: Inhibition of PKCzeta (unknown origin) incubated for 1 hr by spectrophotometric analysis
[31] = biological target: Glycogen synthase kinase-3 beta (Homo sapiens, UniProt P49841); test: Inhibition of GSK3beta (unknown origin) incubated for 1 hr by spectrophotometric analysis
[32] = biological target: Insulin-like growth factor 1 receptor (Homo sapiens, UniProt P08069); test: Inhibition of IGF-1R (unknown origin) incubated for 1 hr by spectrophotometric analysis
[33] = biological target: Hepatocyte growth factor receptor (Homo sapiens, UniProt P08581); test: Inhibition of c-Met (unknown origin) incubated for 1 hr by spectrophotometric analysis
[34] = biological target: Tyrosine-protein kinase JAK1 (Homo sapiens, UniProt P23458); test: Inhibition of JAK1 (unknown origin) incubated for 1 hr by spectrophotometric analysis
Ephrin type-B receptor 1 = Ephrin type-B receptor 1 (Homo sapiens, UniProt P54762); test: Inhibition of EPHB1 (unknown origin) incubated for 1 hr by spectrophotometric analysis
[35] = biological target: Tyrosine-protein kinase Fyn (Homo sapiens, UniProt P06241); test: Inhibition of FYN (unknown origin) incubated for 1 hr by spectrophotometric analysis

**Q.** With `CN1C(=O)COc2c1cnc1ccc(Sc3nnc4c(F)cc(-c5cnn(C)c5)cn34)cc21` [DALMELITINIB] as the compound, how does the IC50 [1] read?
**A.** > 30 µM

**Q.** And the IC50 [2]?
**A.** > 30 µM

**Q.** And the IC50 [3]?
**A.** > 30 µM

**Q.** And the IC50 [4]?
**A.** > 30 µM

**Q.** What about the IC50 [5] of the same compound?
**A.** > 30 µM

**Q.** What about the IC50 [6] of the same compound?
**A.** > 30 µM

**Q.** And the IC50 [7]?
**A.** > 30 µM

**Q.** And the IC50 [8]?
**A.** > 30 µM

**Q.** What about the IC50 [9] of the same compound?
**A.** 0.006 µM

**Q.** And the IC50 [10]?
**A.** > 30 µM

**Q.** And the IC50 [11]?
**A.** > 30 µM

**Q.** And the IC50 [12]?
**A.** 15.5 µM

**Q.** And the IC50 [13]?
**A.** > 30 µM

**Q.** And the IC50 [14]?
**A.** > 30 µM

**Q.** What about the IC50 [15] of the same compound?
**A.** > 30 µM

**Q.** And the IC50 (Insulin receptor)?
**A.** > 30 µM

**Q.** And the IC50 [16]?
**A.** 0.007 µM

**Q.** And the IC50 [17]?
**A.** > 30 µM

**Q.** And the IC50 [18]?
**A.** > 10 µM

**Q.** What about the IC50 [19] of the same compound?
**A.** > 30 µM

**Q.** And the IC50 [20]?
**A.** 8.69 µM

**Q.** And the IC50 (NCI-H1993)?
**A.** 0.014 µM

**Q.** What about the IC50 [21] of the same compound?
**A.** > 30 µM

**Q.** And the IC50 [22]?
**A.** > 30 µM

**Q.** And the IC50 [23]?
**A.** > 30 µM

**Q.** What about the IC50 [24] of the same compound?
**A.** > 30 µM

**Q.** And the IC50 [25]?
**A.** 0.033 µM

**Q.** What about the IC50 [26] of the same compound?
**A.** > 30 µM

**Q.** What about the IC50 (NCI-H1975) of the same compound?
**A.** > 10 µM

**Q.** What about the IC50 (NCI-N87) of the same compound?
**A.** > 10 µM

**Q.** And the IC50 [27]?
**A.** 0.002 µM

**Q.** What about the IC50 [28] of the same compound?
**A.** > 30 µM

**Q.** What about the IC50 [29] of the same compound?
**A.** > 30 µM

**Q.** And the IC50 [30]?
**A.** > 30 µM

**Q.** What about the IC50 [31] of the same compound?
**A.** 16.2 µM

**Q.** What about the IC50 [32] of the same compound?
**A.** > 30 µM

**Q.** What about the IC50 [33] of the same compound?
**A.** 0.0007 µM

**Q.** And the IC50 [34]?
**A.** > 30 µM

**Q.** And the IC50 (Ephrin type-B receptor 1)?
**A.** > 30 µM

**Q.** And the IC50 [35]?
**A.** 11.2 µM
